Counter-ions that a name gives are not always drawn.
How the values were obtained:
Assay type in all cases: cell-based
[1] = tested on: LoVo cells (wild-type EGFR human colon adenocarcinoma); assay: Cell growth inhibition (Cell Titer-Glo), LoVo; conditions: 72 hours drug treatment, 3 nM to 10 μM
Procedure: (§1) Experiment of Cell Growth Inhibition
(§2) The LoVo cell line is a wild-type EGFR human colon adenocarcinoma cell, and is grown in F-12K medium (GIBCO) containing 10% FBS. NCI-H2073 cell line is a wild-type EGFR human non-small cell lung cancer cell and grown in ACL-4 medium containing 10% FBS. The growth rate of NCI-H1975, LoVo and NCI-H2073 cells was detected by Cell Titer-Glo luminescence activity assay (Promega #G7572).
(§3) Briefly, trypsin was used for digesting cells in the logarithmic growth phase. 96-well plates were seeded with 50,000 Lovo or NCI-H2073 cells, 2500-3000 NCI-H1975 cells per well and provided with blank control wells containing only nutrient solution without inoculated cell, and the plates were incubated in a humidified incubator with 5% CO2 at 37° C. […] The concentration of test drug in NCI-H1975 cells was from 0.03 nM to 100 nM, and that in LoVo and NCI-H2073 cells was from 3 nM to 10 μM. The cell culture medium containing the different compounds was then added to a 96-well cell plate in which one cell control well comprising cell culture medium only containing DMSO was provided. After a drug treatment for 72 hours, the cell plates were removed from the incubator and allowed to stand at room temperature for 30 minutes. Next, Cell Titer-Glo reagent was added to the wells and the 96-well cell plate was shaken at room temperature for 10 minutes to induce cell lysis. The 96-well cell plate was placed on the bench for 2 minutes to stabilize the luminescence signal. Finally, the 96-well cell plate was placed in an EnVision Multi-labeled Microplate Reader (PerkinElmer), and the signal was read with an integral time of 0.5 seconds.
(§4) Formula: Percentage of cell growth inhibition %=(maximum signal−compound signal)/(maximum signal−minimum signal)*100%
(§5) The maximal signal was obtained from the cell control well which were treated with the DMSO solution having no any compound;
(§6) The compound signal was obtained from the drug-treated cell wells to which the compound was added;
(§7) The minimum signal was obtained from a blank control well to which no cells and only nutrient solution was added.

[2] = tested on: NCI-H1975 cells (T790M and L858R EGFR mutations); assay: Cell growth inhibition (Cell Titer-Glo), NCI-H1975; conditions: Homo sapiens, 72 hours drug treatment, 0.03 nM to 100 nM
Procedure: as §1, §2, §3, §4, §5, §6, §7

[3] = tested on: NCI-H2073 cells (wild-type EGFR human non-small cell lung cancer); assay: Cell growth inhibition (Cell Titer-Glo), NCI-H2073; conditions: 72 hours drug treatment, 3 nM to 10 μM
Procedure: as §1
as §2, with “The compounds that were preferentially targeted for EGFR targeting certain mutations and relatively weak in wild-type EGFR were identified by determining the growth of cells. The NCI-H1975 cell line is a human non-small cell lung cancer cell containing T790M and L858R EGFR mutations, and the cell is grown in RPMI-1640 medium (GIBCO) containing 10% fetal bovine serum (FBS). The LoVo” for “The LoVo”
Briefly, trypsin was used for digesting cells in the logarithmic growth phase. 96-well plates were seeded with 50,000 Lovo or NCI-H2073 cells, 2500-3000 NCI-H1975 cells per well and provided with blank control wells containing only nutrient solution without inoculated cell, and the plates were incubated in a humidified incubator with 5% CO2 at 37° C. After 24 hours, the DMSO solution of the different compounds was diluted with a cell culture medium at 3.16 times per time to eight different concentrations from high to low levels. The concentration of test drug in NCI-H1975 cells was from 0.03 nM to 100 nM, and that in LoVo and NCI-H2073 cells was from 3 nM to 10 μM. The cell culture medium containing the different compounds was then added to a 96-well cell plate in which one cell control well comprising cell culture medium only containing DMSO was provided. After a drug treatment for 72 hours, the cell plates were removed from the incubator and allowed to stand at room temperature for 30 minutes. Next, Cell Titer-Glo reagent was added to the wells and the 96-well cell plate was shaken at room temperature for 10 minutes to induce cell lysis. The 96-well cell plate was placed on the bench for 2 minutes to stabilize the luminescence signal. Finally, the 96-well cell plate was placed in an EnVision Multi-labeled Microplate Reader (PerkinElmer), and the signal was read with an integral time of 0.5 seconds.
as §4, §5, §6, §7

IC50 [1]	IC50 [2]	IC50 [3]	Compound
2260 nM	5.4 nM	230 nM	C=CC(=O)Nc1cc(Nc2nccc(-c3nn(C)c4ccccc34)n2)c(OC)cc1N(C)CCN(C)C [1. (HCl)n]
2300 nM	6.1 nM	474 nM	C=CC(=O)Nc1cc(Nc2nccc(-n3nnc4ccccc43)n2)c(OC)cc1N(C)CCN(C)C [2. (MsOH)3]
3090 nM	6.2 nM	295 nM	C=CC(=O)Nc1cc(Nc2nccc(-n3ccc4ccccc43)n2)c(OC)cc1N(C)CCN(C)C [3. (MsOH)2]
2570 nM	8.6 nM	500 nM	C=CC(=O)Nc1cc(Nc2nccc(-n3cc(C)c4ccccc43)n2)c(OC)cc1N(C)CCN(C)C [4. (MsOH)3]
4230 nM	5.4 nM	335 nM	C=CC(=O)Nc1cc(Nc2nccc(N3CCc4ccccc43)n2)c(OC)cc1N(C)CCN(C)C [5. (MsOH)3]
2170 nM	9.9 nM	760 nM	C=CC(=O)Nc1cc(Nc2nccc(-c3cn(C)c4ccccc34)n2)c(OC)cc1N(C)CCN(C)CC [7. (MsOH)3]
1940 nM	113 nM	870 nM	C=CC(=O)Nc1cc(Nc2nccc(-c3cn(C)c4ccccc34)n2)c(OC)cc1N(C)CCN(CC)CC [8. MsOH]
2060 nM	13 nM	1130 nM	C=CC(=O)Nc1cc(Nc2nccc(-c3cn(C)c4ccccc34)n2)c(OC)cc1N(CC)CCN(C)C [9. (MsOH)2]
2520 nM	13 nM	2520 nM	C=CC(=O)Nc1cc(Nc2nccc(-c3cn(C)c4ccccc34)n2)c(OC)cc1OCCN(C)C [29. (MsOH)2]
4330 nM	15 nM	410 nM	C=CC(=O)Nc1cc(Nc2nccc(N3CCOc4ccccc43)n2)c(OC)cc1N(C)CCN(C)C [36. (MsOH)3]
4660 nM	8.1 nM	260 nM	C=CC(=O)Nc1cc(Nc2nccc(N3CC(C)(C)c4ccccc43)n2)c(OC)cc1N(C)CCN(C)C [37. (MsOH)3]
2990 nM	8.2 nM	476 nM	C=CC(=O)Nc1cc(Nc2nccc(N3CC4(CC4)c4ccccc43)n2)c(OC)cc1N(C)CCN(C)C [38. (HCl)n]
3390 nM	0.8 nM	18 nM	C=CC(=O)Nc1cc(Nc2nccc(-n3c(=O)[nH]c4ccccc43)n2)c(OC)cc1N(C)CCN(C)C [39. (MsOH)3]
6090 nM	1.3 nM	183 nM	C=CC(=O)Nc1cc(Nc2nccc(-n3c(=O)n(C)c4ccccc43)n2)c(OC)cc1N(C)CCN(C)C [40. (MsOH)3]
> 10000 nM	7.4 nM	340 nM	C=CC(=O)Nc1cc(Nc2nccc(-c3cccc4c3ccn4C)n2)c(OC)cc1N(C)CCN(C)C [41. (HCl)n]
7100 nM	7.1 nM	490 nM	C=CC(=O)Nc1cc(Nc2nccc(-c3cccc4c3cnn4C)n2)c(OC)cc1N(C)CCN(C)C [42. (HCl)n]
870 nM	14 nM	280 nM	C=CC(=O)Nc1cc(Nc2cc(-c3cn(C)c4ccccc34)ncn2)c(OC)cc1N(C)CCN(C)C [44. (HCl)n]
2340 nM	5.5 nM	435 nM	C=CC(=O)Nc1cc(Nc2nccc(-c3cn(CC)c4ccccc34)n2)c(OC)cc1N(C)CCN(C)C [48. (HCl)n]
> 10000 nM	9.2 nM	290 nM	C=CC(=O)Nc1cc(Nc2nccc(-n3[nH]c(=O)c4ccccc43)n2)c(OC)cc1N(C)CCN(C)C [50. (HCl)n]
1280 nM	2.6 nM	325 nM	C=CC(=O)Nc1cc(Nc2nccc(-c3nn(CC)c4ccccc34)n2)c(OC)cc1N(C)CCN(C)C [51. (HCl)n]

IC50 [1]	IC50 [2]	IC50 [3]	Compound
6100 nM	5.2 nM	220 nM	C=CC(=O)Nc1cc(Nc2nccc(-c3nc(C)c4ccccn34)n2)c(OC)cc1N(C)CCN(C)C [52. (HCl)n]
–	0.4 nM	64 nM	[2H]C([2H])([2H])N(CCN(C)C)c1cc(OC)c(Nc2nccc(-c3cn(S(C)(=O)=O)c4ccccc34)n2)cc1NC(=O)C=C [71. (MsOH)2]
–	2.7 nM	282 nM	[2H]C([2H])([2H])N(CCN(C)c1cc(OC)c(Nc2nccc(-c3cn(CC)c4ccccc34)n2)cc1NC(=O)C=C)C([2H])([2H])[2H] [72. (MsOH)3]
–	1.7 nM	179 nM	[2H]C([2H])([2H])N(CCN(C)C)c1cc(OC)c(Nc2nccc(-c3cn(CC)c4ccccc34)n2)cc1NC(=O)C=C [73. (MsOH)2]
–	14.4 nM	463 nM	[2H]C([2H])([2H])N(CCN(C)C)c1cc(OC)c(Nc2nccc(-n3nnc4ccccc43)n2)cc1NC(=O)C=C [74. (MsOH)3]
–	1 nM	56 nM	[2H]C([2H])([2H])N(CCN(C)C)c1cc(OC)c(Nc2nccc(-n3c(=O)n(C([2H])([2H])[2H])c4ccccc43)n2)cc1NC(=O)C=C [76. (MsOH)2]
–	5.5 nM	193 nM	C=CC(=O)Nc1cc(Nc2nccc(-c3cn(S(=O)(=O)CC)c4ccccc34)n2)c(OC)cc1N(C)CCN(C)C [101. (MsOH)2]
–	6.4 nM	170 nM	C=CC(=O)Nc1cc(Nc2nccc(-c3cn(S(=O)(=O)C(C)C)c4ccccc34)n2)c(OC)cc1N(C)CCN(C)C [102. (MsOH)2]
–	13.1 nM	300 nM	C=CC(=O)Nc1cc(Nc2nccc(-c3cn(S(=O)(=O)C4CC4)c4ccccc34)n2)c(OC)cc1N(C)CCN(C)C [103. (MsOH)2]
–	15.7 nM	543 nM	C=CC(=O)Nc1cc(Nc2nccc(-c3cn(CC(F)F)c4ccccc34)n2)c(OC)cc1N(C)CCN(C)C [105. (MsOH)2]
–	4.7 nM	155 nM	C=CC(=O)Nc1cc(Nc2nccc(-n3c(=O)n(C(C)C)c4ccccc43)n2)c(OC)cc1N(C)CCN(C)C [106. (MsOH)2]
–	7.4 nM	185 nM	C=CC(=O)Nc1cc(Nc2nccc(-n3c(=O)n(C4CC4)c4ccccc43)n2)c(OC)cc1N(C)CCN(C)C [107. (MsOH)2]
–	5.9 nM	253 nM	C=CC(=O)Nc1cc(Nc2nccc(-n3c(=O)n(CC(F)(F)F)c4ccccc43)n2)c(OC)cc1N(C)CCN(C)C [108. (MsOH)2]
–	4.5 nM	268 nM	C=CC(=O)Nc1cc(Nc2nccc(-n3c(=O)n(CC(F)F)c4ccccc43)n2)c(OC)cc1N(C)CCN(C)C [109. (MsOH)2]
–	2.9 nM	103 nM	C=CC(=O)Nc1cc(Nc2nccc(N3c4ccccc4N(C)S3(=O)=O)n2)c(OC)cc1N(C)CCN(C)C [110. (MsOH)2]
–	2.7 nM	49 nM	C=CC(=O)Nc1cc(Nc2nccc(N3c4ccccc4N(CC)S3(=O)=O)n2)c(OC)cc1N(C)CCN(C)C [111. (MsOH)2]
–	100 nM	5420 nM	C=CC(=O)Nc1cc(Nc2nccc(-n3cc(S(C)(=O)=O)c4ccccc43)n2)c(OC)cc1N(C)CCN(C)C [112. (MsOH)2]
–	26.5 nM	595 nM	C=CC(=O)Nc1cc(Nc2nccc(-c3nn(C(C)C)c4ccccc34)n2)c(OC)cc1N(C)CCN(C)C [113. (MsOH)2]
–	81.7 nM	4100 nM	C=CC(=O)Nc1cc(Nc2nccc(-c3cncc4ccccc34)n2)c(OC)cc1N(C)CCN(C)C [Example 67]
